Experiments:
CCRF-CEM = experiment: NCI-60 one-dose SRB screen (Leukemia); format: cell-based; settings: Homo sapiens, single dose 10 µM, 48 h, read-out: Growth inhibition percent (GI %)
HL-60(TB) = experiment: NCI-60 one-dose SRB screen (Leukemia); format: cell-based; settings: Homo sapiens, single dose 10 µM, 48 h, read-out: Growth inhibition percent (GI %)
K-562 = experiment: NCI-60 one-dose SRB screen (Leukemia); format: cell-based; settings: Homo sapiens, K562, single dose 10 µM, 48 h, read-out: Growth inhibition percent (GI %)
MOLT-4 = experiment: NCI-60 one-dose SRB screen (Leukemia); format: cell-based; settings: Homo sapiens, single dose 10 µM, 48 h, read-out: Growth inhibition percent (GI %)
RPMI-8226 = experiment: NCI-60 one-dose SRB screen (Leukemia); format: cell-based; settings: Homo sapiens, single dose 10 µM, 48 h, read-out: Growth inhibition percent (GI %)
SR = experiment: NCI-60 one-dose SRB screen (Leukemia); format: cell-based; settings: Homo sapiens, single dose 10 µM, 48 h, read-out: Growth inhibition percent (GI %)
A549/ATCC = experiment: NCI-60 one-dose SRB screen (Non-Small Cell Lung Cancer); format: cell-based; settings: Homo sapiens, single dose 10 µM, 48 h, read-out: Growth inhibition percent (GI %)
EKVX = experiment: as above; format: cell-based; settings: Homo sapiens, single dose 10 µM, 48 h, read-out: Growth inhibition percent (GI %)
HOP-62 = experiment: as above; format: cell-based; settings: Homo sapiens, single dose 10 µM, 48 h, read-out: Growth inhibition percent (GI %)
HOP-92 = experiment: as above; format: cell-based; settings: Homo sapiens, single dose 10 µM, 48 h, read-out: Growth inhibition percent (GI %)
NCI-H226 = experiment: as above; format: cell-based; settings: Homo sapiens, single dose 10 µM, 48 h, read-out: Growth inhibition percent (GI %)
NCI-H23 = experiment: as above; format: cell-based; settings: Homo sapiens, single dose 10 µM, 48 h, read-out: Growth inhibition percent (GI %)
NCI-H322M = experiment: as above; format: cell-based; settings: Homo sapiens, single dose 10 µM, 48 h, read-out: Growth inhibition percent (GI %)
NCI-H460 = experiment: as above; format: cell-based; settings: Homo sapiens, single dose 10 µM, 48 h, read-out: Growth inhibition percent (GI %)
NCI-H522 = experiment: as above; format: cell-based; settings: Homo sapiens, single dose 10 µM, 48 h, read-out: Growth inhibition percent (GI %)
COLO 205 = experiment: NCI-60 one-dose SRB screen (Colon Cancer); format: cell-based; settings: Homo sapiens, single dose 10 µM, 48 h, read-out: Growth inhibition percent (GI %)
HCC-2998 = experiment: NCI-60 one-dose SRB screen (Colon Cancer); format: cell-based; settings: Homo sapiens, single dose 10 µM, 48 h, read-out: Growth inhibition percent (GI %)
HCT-116 = experiment: NCI-60 one-dose SRB screen (Colon Cancer); format: cell-based; settings: Homo sapiens, single dose 10 µM, 48 h, read-out: Growth inhibition percent (GI %)
HCT-15 = experiment: NCI-60 one-dose SRB screen (Colon Cancer); format: cell-based; settings: Homo sapiens, single dose 10 µM, 48 h, read-out: Growth inhibition percent (GI %)
KM12 = experiment: NCI-60 one-dose SRB screen (Colon Cancer); format: cell-based; settings: Homo sapiens, single dose 10 µM, 48 h, read-out: Growth inhibition percent (GI %)
SW-620 = experiment: NCI-60 one-dose SRB screen (Colon Cancer); format: cell-based; settings: Homo sapiens, single dose 10 µM, 48 h, read-out: Growth inhibition percent (GI %)
LOX IMVI = experiment: NCI-60 one-dose SRB screen (Melanoma); format: cell-based; settings: Homo sapiens, single dose 10 µM, 48 h, read-out: Growth inhibition percent (GI %)
M14 = experiment: NCI-60 one-dose SRB screen (Melanoma); format: cell-based; settings: Homo sapiens, single dose 10 µM, 48 h, read-out: Growth inhibition percent (GI %)
MALME-3M = experiment: NCI-60 one-dose SRB screen (Melanoma); format: cell-based; settings: Homo sapiens, single dose 10 µM, 48 h, read-out: Growth inhibition percent (GI %)
MDA-MB-435 = experiment: NCI-60 one-dose SRB screen (Melanoma); format: cell-based; settings: Homo sapiens, single dose 10 µM, 48 h, read-out: Growth inhibition percent (GI %)
SK-MEL-28 = experiment: NCI-60 one-dose SRB screen (Melanoma); format: cell-based; settings: Homo sapiens, single dose 10 µM, 48 h, read-out: Growth inhibition percent (GI %)
SK-MEL-2 = experiment: NCI-60 one-dose SRB screen (Melanoma); format: cell-based; settings: Homo sapiens, single dose 10 µM, 48 h, read-out: Growth inhibition percent (GI %)
SK-MEL-5 = experiment: NCI-60 one-dose SRB screen (Melanoma); format: cell-based; settings: Homo sapiens, single dose 10 µM, 48 h, read-out: Growth inhibition percent (GI %)
UACC-257 = experiment: NCI-60 one-dose SRB screen (Melanoma); format: cell-based; settings: Homo sapiens, single dose 10 µM, 48 h, read-out: Growth inhibition percent (GI %)
UACC-62 = experiment: NCI-60 one-dose SRB screen (Melanoma); format: cell-based; settings: Homo sapiens, single dose 10 µM, 48 h, read-out: Growth inhibition percent (GI %)
IGROV1 = experiment: NCI-60 one-dose SRB screen (Ovarian cancer); format: cell-based; settings: Homo sapiens, IGROV-1, single dose 10 µM, 48 h, read-out: Growth inhibition percent (GI %)
NCI/ADR-RES = experiment: NCI-60 one-dose SRB screen (Ovarian cancer); format: cell-based; settings: Homo sapiens, single dose 10 µM, 48 h, read-out: Growth inhibition percent (GI %)
OVCAR-3 = experiment: NCI-60 one-dose SRB screen (Ovarian cancer); format: cell-based; settings: Homo sapiens, single dose 10 µM, 48 h, read-out: Growth inhibition percent (GI %)
OVCAR-4 = experiment: NCI-60 one-dose SRB screen (Ovarian cancer); format: cell-based; settings: Homo sapiens, single dose 10 µM, 48 h, read-out: Growth inhibition percent (GI %)
OVCAR-5 = experiment: NCI-60 one-dose SRB screen (Ovarian cancer); format: cell-based; settings: Homo sapiens, single dose 10 µM, 48 h, read-out: Growth inhibition percent (GI %)
OVCAR-8 = experiment: NCI-60 one-dose SRB screen (Ovarian cancer); format: cell-based; settings: Homo sapiens, single dose 10 µM, 48 h, read-out: Growth inhibition percent (GI %)
SK-OV-3 = experiment: NCI-60 one-dose SRB screen (Ovarian cancer); format: cell-based; settings: Homo sapiens, single dose 10 µM, 48 h, read-out: Growth inhibition percent (GI %)
DU-145 = experiment: NCI-60 one-dose SRB screen (Prostate Cancer); format: cell-based; settings: Homo sapiens, single dose 10 µM, 48 h, read-out: Growth inhibition percent (GI %)
PC-3 = experiment: NCI-60 one-dose SRB screen (Prostate Cancer); format: cell-based; settings: Homo sapiens, single dose 10 µM, 48 h, read-out: Growth inhibition percent (GI %)
HS 578T = experiment: NCI-60 one-dose SRB screen (Breast Cancer); format: cell-based; settings: Homo sapiens, single dose 10 µM, 48 h, read-out: Growth inhibition percent (GI %)
MCF-7 = experiment: NCI-60 one-dose SRB screen (Breast Cancer); format: cell-based; settings: Homo sapiens, MCF7, single dose 10 µM, 48 h, read-out: Growth inhibition percent (GI %)
MDA-MB-231/ATCC = experiment: NCI-60 one-dose SRB screen (Breast Cancer); format: cell-based; settings: Homo sapiens, single dose 10 µM, 48 h, read-out: Growth inhibition percent (GI %)
T-47D = experiment: NCI-60 one-dose SRB screen (Breast Cancer); format: cell-based; settings: Homo sapiens, T47D, single dose 10 µM, 48 h, read-out: Growth inhibition percent (GI %)
hCA IX = hCA IX (Homo sapiens, UniProt Q16790); experiment: CA inhibitory activity, spectrophotometric p-NPA assay; format: biochemical; settings: p-NPA substrate, pH 7.5, 25 °C, triplicate; read-out: IC50 (µM) ± SD hCA IX

For `Cc1ccc(-c2nn(-c3ccc(S(N)(=O)=O)cc3)cc2-c2n[nH]c(=S)[nH]2)cc1` [Compound 11, 4-[4-(5-Mercapto-1H-1,2,4-triazol-3-yl)-3-(p-tolyl)-1H-pyrazol-1-yl] benzenesulfonamide], the inhibition at 10 µM (CCRF-CEM) was < 5%, the inhibition at 10 µM (HL-60(TB)) was < 5% and the inhibition at 10 µM (K-562) was < 5%. The inhibition at 10 µM (MOLT-4) was 21.1%, the inhibition at 10 µM (RPMI-8226) was < 5% and the inhibition at 10 µM (SR) was 15.8%. The inhibition at 10 µM (A549/ATCC) was < 5%, the inhibition at 10 µM (EKVX) was < 5% and the inhibition at 10 µM (HOP-62) was < 5%. The inhibition at 10 µM (HOP-92) was < 5%, the inhibition at 10 µM (NCI-H226) was < 5% and the inhibition at 10 µM (NCI-H23) was < 5%. The inhibition at 10 µM (NCI-H322M) was < 5%, the inhibition at 10 µM (NCI-H460) was < 5% and the inhibition at 10 µM (NCI-H522) was < 5%. The inhibition at 10 µM (COLO 205) was < 5%, the inhibition at 10 µM (HCC-2998) was < 5% and the inhibition at 10 µM (HCT-116) was < 5%. For the same compound, the inhibition at 10 µM (HCT-15) was < 5%, the inhibition at 10 µM (KM12) was < 5% and the inhibition at 10 µM (SW-620) was < 5%. For the same compound, the inhibition at 10 µM (LOX IMVI) was 13.5%, the inhibition at 10 µM (M14) was < 5% and the inhibition at 10 µM (MALME-3M) was < 5%. For the same compound, the inhibition at 10 µM (MDA-MB-435) was < 5%, the inhibition at 10 µM (SK-MEL-28) was < 5% and the inhibition at 10 µM (SK-MEL-2) was < 5%. The inhibition at 10 µM (SK-MEL-5) was < 5%, the inhibition at 10 µM (UACC-257) was < 5% and the inhibition at 10 µM (UACC-62) was 12.9%. The inhibition at 10 µM (IGROV1) was < 5%, the inhibition at 10 µM (NCI/ADR-RES) was < 5% and the inhibition at 10 µM (OVCAR-3) was 11.4%. For the same compound, the inhibition at 10 µM (OVCAR-4) was 10.1%, the inhibition at 10 µM (OVCAR-5) was < 5% and the inhibition at 10 µM (OVCAR-8) was < 5%. For the same compound, the inhibition at 10 µM (SK-OV-3) was < 5%, the inhibition at 10 µM (DU-145) was < 5% and the inhibition at 10 µM (PC-3) was < 5%. The inhibition at 10 µM (HS 578T) was < 5%, the inhibition at 10 µM (MCF-7) was 6.49% and the inhibition at 10 µM (MDA-MB-231/ATCC) was < 5%. The inhibition at 10 µM (T-47D) was 21.2%, the IC50 (hCA IX) was 0.24 ± 0.011 µM and the melting point was 255 to 257 °C.

From PMC12454493, “Insight on novel sulfamoylphenyl pyrazole derivatives as anticancer carbonic anhydrase inhibitors” (Molecular Diversity, 2024)
